Measured values from patent US9505834B2, “Methods for controlling the galactosylation profile of recombinantly-expressed proteins” (AbbVie Inc., priority 2011, dated 2016).

Experiments:
[1] = system: adalimumab-producing CHO cell line; test: Example 2 culture growth & productivity, HyClone CDM4CHO; format: cell-based, Chinese Hamster; conditions: galactose 0 to 40 mM and/or manganese chloride up to 10 μM
Method: (§1) For all studies with CHO cell lines described throughout this invention, samples were collected daily and measured for cell density and viability using a Cedex cell counter. Retention samples for titer analysis via Poros A method were collected by centrifugation at 12,000 RPM for 5 min when the culture viability began declining. The cultures were harvested by collecting 125 mL aliquots and centrifuging at 3,000 RPM for 30 min when culture viability was near or below 50%. All supernatants were stored at −80° C. until analysis.
(§2) Growth and production media for the adalimumab-producing CHO cell line were prepared using Thermo Scientific HyClone chemically defined media CDM4CHO without L-glutamine (Catalogue #SH30558.02). […] All media were filtered through Corning 0.5 L or 1 L (0.22 μm PES) filter systems and stored at 4° C. until use.
(§3) Upon thaw, cells were adapted to and expanded in HyClone CDM4CHO media for 5 (2 to 3 day each) passages in a combination of 250 mL, 500 mL, and 1000 mL Corning vented non-baffled shake flasks. Production cultures were initiated in duplicate 500 mL Corning vented non-baffled shake flasks (200 mL working volume) at an initial VCD of approximately 0.5×10^6 cells/mL. Cultures were maintained on orbital shakers at 110 RPM in a dry incubator at 35° C. and 5% CO2. […]

[2] = system: CHO cell line producing mAb #1; test: Example 7 oligosaccharide analysis, CDM GIA-1, batch shake flasks; format: cell-based, Chinese Hamster
Method: as §1
(§4) For all studies, the harvest samples were Protein A purified and prepared for the oligosaccharide assay using the following procedures. As a first step in the process of establishing the identity and quantifying the oligosaccharides, they are released from the protein by enzymatic digestion with N-glycanase. Once the glycans are released, the free reducing end of each glycan is labeled by reductive amination with a fluorescent tag, 2-aminobenzamide (2-AB). The resulting labeled glycans are separated by normal-phase HPLC (NP-HPLC) in acetonitrile: 50 mM ammonium formate, pH 4.4, and detected by a fluorescence detector. Quantitation is based on the relative area percent of detected sugars. Throughout this invention, the relative area percentages of the agalactosyl fucosylated biantennary oligosaccharides, denoted as NGA2F+NGA2F-GlcNAc sum, and the galactose-containing fucosylated biantennary oligosaccharides NA1F+NA2F sum are reported and discussed.
Growth and production media for the CHO cell line producing mAb #1 were prepared using a proprietary Life Technologies Gibco chemically defined media, GIA-1. […] All media were filtered through Corning 0.5 L or 1 L filter systems (0.22 μm PES) and stored at 4° C. until use.
as §3, with “were” for “were adapted to and”, “expanded” for “expanded in HyClone CDM4CHO media”, “6 (3” for “5 (2 to 3”, “125” for “110”, “CO2. A glucose solution (1.25% (v/v) of 40% solution) was fed when the media glucose concentration fell below 3 g/L.” for “CO2.”

[3] = system: adalimumab-producing NSO cell line; test: Example 6 oligosaccharide analysis, CDM PFBM-3/PFFM-4, fed-batch shake flasks; format: cell-based
From the text: as §4
(§5) Growth and production media for the adalimumab-producing NSO cell line were prepared using a proprietary Life Technologies Gibco chemically defined media, PFBM-3 basal medium plus PFFM-4 feed medium.
(§6) Upon thaw, cells were expanded for 3 to 5 (2 days each) passages in a combination of 250 mL, 500 mL, 1 L, 2 L and 3 L Corning vented non-baffled shake flasks. Production cultures were initiated in single 1 L Corning vented non-baffled shake flasks (240 mL initial working volume) at an initial VCD of approximately 2.5×10^5 cells/mL. Cultures were maintained on orbital shakers at 100 RPM in a dry incubator at 37° C. and 5% CO2. The shake flask study was run in a fed-batch mode and the culture was fed PFFM-4 as follows: 24 mL—day 2, 28.8 mL—day 4, 28.8 mL—day 6, and 28.8 mL—day 8.
(§7) Samples were collected every 2 days and measured for cell density and viability using a Cedex cell counter. Retention samples for titer analysis via Poros A method were collected daily beginning on Day 8 by centrifugation at 2,000 g for 10 min and then filtered through 0.2 μm PVDF syringe filter. The cultures were harvested on production day 10. The entire culture was collected, chilled on ice to approximately 0° C. for 1.5 hours, the cells and debris flocculated at pH 5.0 by the addition of 1M citric acid and held for 15 minutes, and centrifuged at 4000x g for 15 min at 5° C. The supernatant was passed through 0.20 μm Millipore Stericup PES filters, and, immediately post filtration, the acidified clarified cell-free harvest was neutralized with 2M Tris to pH 7.1±0.2. The cell free harvest was transferred to PETG bottles and stored at −80° C. until analysis.
(§8) Galactose was supplemented at the following levels in both production and feed media: 0, 1, 4, 5, and 10 mM.

[4] = system: adalimumab-producing CHO cell line; test: Example 1 culture growth & productivity, batch shake flasks; format: cell-based, Chinese Hamster; conditions: galactose 0 to 100 mM and/or manganese chloride up to 80 μM
Method: All supernatants were stored at −80° C. until analysis. […] Culture growth, productivity, and product quality data for control cultures is the average of the 3 experiments.

[5] = system: adalimumab-producing CHO cell line; test: Example 2 oligosaccharide analysis, HyClone CDM4CHO, batch shake flasks; format: cell-based, Chinese Hamster
Method: as §1, §4, §2
as §3, with “CO2. A glucose solution (1.25% (v/v) of 40% solution) was fed when the media glucose concentration fell below 3 g/L.” for “CO2.”

[6] = system: adalimumab-producing NSO cell line; test: Example 6 culture growth & productivity; format: cell-based; conditions: for culture growth and viability profiles: galactose 0 to 5 mM and/or manganese chloride up to 0.5 μM
Method: as §5, §6, §7, §8

[7] = manganese chloride alone, range 0 to 40 μM
[8] = 0.5 μM manganese chloride alone

**Q.** Which “cell growth and viability profiles” value [1] does the source give for O=C[C@H](O)[C@@H](O)[C@@H](O)[C@H](O)CO [galactose, D(+)Galactose] here?
**A.** comparable to the control cultures

**Q.** What about the “decrease in the NGA2F+NGA2F-GlcNac sum” value ([2]; 40 mM galactose alone) of the same compound?
**A.** 12%

**Q.** What about the “maximum decrease in the NGA2F+NGA2F-GlcNac sum” value (from here on “maximum decrease”) ([2]; galactose alone up to 40 mM) of the same compound?
**A.** 12%

**Q.** And the “maximum increase in the NA1F+NA2F sum” value ([2]; galactose alone up to 40 mM)?
**A.** 13%

**Q.** And the “decrease in the NGA2F+NGA2F-GlcNac sum” value ([3]; 4 mM galactose alone)?
**A.** 2%

**Q.** What about the “increase in the NA1F+NA2F sum” value ([3]; 10 mM galactose alone) of the same compound?
**A.** 15%

**Q.** And the “maximum decrease” value ([3]; 10 mM galactose alone)?
**A.** 14%

**Q.** What about the “cell growth and viability profiles” value [4] of the same compound?
**A.** comparable to control cultures

**Q.** What about the “decrease in the NGA2F+NGA2F-GlcNac sum” value ([5]; 40 mM galactose alone) of the same compound?
**A.** 6%

**Q.** And the “increase in the NA1F+NA2F sum” value ([5]; galactose alone up to 40 mM)?
**A.** 6%

**Q.** And the “maximum decrease” value ([5]; galactose alone up to 40 mM)?
**A.** 6%

**Q.** And the “culture growth and viability profiles” value [6]?
**A.** comparable to the control condition

**Q.** And the “effect on culture growth and productivity” value ([6]; galactose 10 mM)?
**A.** detrimental effect on culture growth and productivity

**Q.** And the “harvest titer lower than control condition” value ([6]; galactose 10 mM)?
**A.** 60%

**Q.** For “Manganese (II) Chloride [manganese chloride]”, which “cell growth and viability profiles” value [1] is on record?
**A.** comparable to the control cultures

**Q.** What about the “decrease in the NGA2F+NGA2F-GlcNac sum” value ([2]; 40 μM manganese chloride alone) of the same compound?
**A.** 20%

**Q.** And the “maximum decrease” value [2, 7]?
**A.** 26%

**Q.** What about the “maximum increase in the NA1F+NA2F sum” value [2, 7] of the same compound?
**A.** 27%

**Q.** And the “decrease in the NGA2F+NGA2F-GlcNac sum” value ([3]; 0.2 μM manganese chloride alone)?
**A.** 12%

**Q.** And the “increase in the NA1F+NA2F sum” value [3, 8]?
**A.** 20%

**Q.** What about the “maximum decrease” value [3, 8] of the same compound?
**A.** 18%

**Q.** And the “cell growth and viability profiles” value [4]?
**A.** comparable to control cultures

**Q.** And the “decrease in the NGA2F+NGA2F-GlcNac sum” value ([5]; 40 μM manganese chloride alone)?
**A.** 5%

**Q.** And the “maximum decrease” value [5, 7]?
**A.** 5%

**Q.** What about the “maximum increase in the NA1F+NA2F sum” value [5, 7] of the same compound?
**A.** 4%

**Q.** What about the “culture growth and viability profiles” value [6] of the same compound?
**A.** comparable to the control condition
